Source: patent US9914698B2, “Stearoyl amino acid salt and preparation method and application thereof” (Shanghai Jiaotong University School of Medicine, priority 2014, dated 2018)

What was measured:
[1] = Absorption kinetics after intragastric administration; format: in vivo; conditions: SD rats, oral 200 mg/kg
Experimental: Ten SD rats weighing 150-180 g were randomly divided into two groups, each comprising five, with males and females combined. After intragastric administration of 200 mg/kg of saline solution containing NsTyr and NsTyr-2K, the average blood concentration-time curve thereof was respectively shown in FIG. 2.

[2] = test system: gerbil model with global ischemia reperfusion injury; test: Neurobehavioral scores of acute cerebral ischemia reperfusion model; format: in vivo; conditions: ischemic model group 3.1+/−0.32
From the text: Taking N-stearoyl amino acid potassium NsTyr-2K as an example, a gerbil model with global ischemia reperfusion injury was used to assess the protective role of NsTyr-2K against neurobehavioral disorder caused by cerebral ischemia-reperfusion injury by examining the changing behavioral indexes such as spatial, learning and cognitive functions in the perspective of overall animals during passive dark avoidance test and Morris water maze test.

[3] = both sexes, Sprague-Dawley (SD), rat, blood

## CCCCCCCCCCCCCCCCCC(=O)N[C@@H](Cc1ccc(O)cc1)C(=O)[O-].[K+] [NsTyr-2K, N-stearoyl tyrosine potassium salt]
[1]
  AUC multiplied, compared with NsTyr: 30 times
  half-life period compared with NsTyr: nearly doubled
  peak concentration Cmax multiplied, compared with NsTyr: ~20 times
[1]; [3]
  AUC(0-inf): 3690 ng·h/mL
  AUC(0-t): 3490 ng·h/mL
  Cmax: 2400 ng/mL
  MRT last: 2.19 h
  Tmax: 0.6 h
  half-life: 2.9 h
[2]; 15 mg/kg
  neurobehavioral score: 1.76+/−0.48
[2]; 30 mg/kg
  neurobehavioral score: 1.25+/−0.31
